These results are taken from patent publication US8946446B2, “Pyrrolo sulfonamide compounds for modulation of orphan nuclear receptor RAR-related orphan receptor-γ (ROR-γ, NR1F3) activity and for the treatment of chronic inflammatory and autoimmune diseases” (Phenex Pharmaceuticals AG, priority 2011, dated 2015).

In the first assay the target is T1, RORγ ligand binding domain (LBD) (Homo sapiens, UniProt P51449).
T1 construct: made in house; host or cells: E. coli BL-21 (BL3), vector pDEST15
T1 sequence (P51449 269-508 limits assumed): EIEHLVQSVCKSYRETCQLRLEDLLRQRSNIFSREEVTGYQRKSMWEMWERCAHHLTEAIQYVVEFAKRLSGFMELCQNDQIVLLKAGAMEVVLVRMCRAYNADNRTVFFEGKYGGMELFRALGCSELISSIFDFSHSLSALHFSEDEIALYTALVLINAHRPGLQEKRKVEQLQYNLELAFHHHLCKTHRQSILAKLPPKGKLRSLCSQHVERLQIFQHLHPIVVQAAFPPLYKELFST
The experiment in a line: TR-FRET Activity Assay (ligand sensing, RORγ-LBD / coactivator peptide interaction). The format is biochemical.
Conditions: not given
The source says: This method measures the ability of putative ligands to modulate the interaction between the purified bacterial expressed RORγ ligand binding domain (LBD) and synthetic N-terminally biotinylated peptides which are derived from nuclear receptor coactivator proteins such as but not limited to SRC1 (NcoA1), SRC2 (NcoA2, TIF2), SRC3 (NcoA3), PGC1α, PGC1β, CBP, GRIP1, TRAP220, RIP140.
The ligand-binding domain (LBD) of RORγ was expressed as fusion protein with GST in […] cells using the vector pDEST15. Cells were lysed by lysozyme-treatment and sonication, and the fusion proteins purified over glutathione sepharose (Pharmacia) according to the manufacturers instructions. For screening of compounds for their influence on the RORγ-peptide interaction, the LANCE technology (Perkin Elmer) was applied. This method relies on the binding dependent energy transfer from a donor to an acceptor fluorophor attached to the binding partner of interest. For ease of handling and reduction of background from compound fluorescence LANCE technology makes use of generic fluorophore labels and time resolved detection assays were done in a final volume of 25 μL in a 384 well plate, in a Tris-based buffer system (20 mM Tris-HCl pH6.8; 60 mM KCl, 1 mM DTT; 5 mM MgCl2; 35 ng/μL BSA), containing 20-60 ng/well recombinantly expressed RORγ-LBD fused to GST, 200-600 nM N-terminally biotinylated peptide, 200 ng/well Streptavidin-xIAPC conjugate (Prozyme) and 6-10 ng/well Eu W1024-antiGST (Perkin Elmer). DMSO content of the samples was kept at 1%.
After generation of the Tris-based buffer system, the potentially RORγ modulating ligands were diluted. […] The LANCE signal was detected by a Perkin Elmer EnVision™ Multilabel Counter. The results were visualized by plotting the ratio between the emitted light at 665 nm and 615 nm. […] Ligands that promote the complex formation induce a concentration-dependent increase in time-resolved fluorescent signal.
The normalised TR-FRET assay values, using the following equation: 1000*665 nm measurement value/615 nm measurement value, were transferred to the program GraphPad Prism to generate graphs and dose response curves using the following equation:
Equation: Sigmoidal Dose-Response (Variable Slope) Y=Bottom+(Top-Bottom)/(1+10^((LogEC50−X)*HillSlope)) X is the logarithm of the concentration. Y is the response. Y starts at Bottom and goes to Top with a sigmoidal shape.
This is identical to the “four parameter logistic equation”. The IC50 values are calculated using this equation.
As for `Cc1c(S(N)(=O)=O)cc(-c2cn(S(=O)(=O)NC(C)(C)C)c3ccccc23)n1CC1CCCCC1` [1/32], the IC50 was over 2 µM. On to `Cc1c(S(N)(=O)=O)cc(-c2cc(C(C)(C)C)cc(S(=O)(=O)N(C)C(C)(C)C)c2)n1CC1CCCCC1` [22/4], for which the IC50 lay in the range of 0.5 to 2 µM.

The same assay, now with this note: read-out: RORγ activity in the TR-FRET Activity Assay (IC50 FRET), Group.
`Cc1c(S(N)(=O)=O)cc(-c2ccc(S(=O)(=O)NC(C)(C)C)c(C(C)(C)C)c2)n1CC1CCCCC1` [22/1]: the IC50 is 0.5 to 2 µM.

As for `Cc1c(S(N)(=O)=O)cc(-c2cn(S(=O)(=O)c3ccccc3Cl)c3ccccc23)n1CC1CCCCC1` [Example 53, 5-(1-((2-Chlorophenyl)sulfonyl)-1H-indol-3-yl)-1-(cyclohexylmethyl)-2-methyl-1H-pyrrole-3-sulfonamide], the IC50 was in the range of 0.5 to 2 µM. Take `Cc1c(S(N)(=O)=O)cc(-c2cc(OCC(F)(F)F)nc(C(C)(C)C)c2)n1CC1CCCCC1` [12/12]: the IC50 is under 0.5 µM.

With `Cc1c(S(=O)(=O)NC2CCC2)cc(-c2cc(C(C)(C)C)cc(C(C)(C)C)c2)n1CC1CCCCC1` [2/3], the IC50 was in the range of 0.5 to 2 µM. `Cc1c(S(N)(=O)=O)cc(-c2cc(OCC3CC3)cc(C(C)(C)C)c2)n1CC1CCCCC1` [16/3]: the IC50 fell in the range of 0.5 to 2 µM.

With `Cc1c(S(N)(=O)=O)cc(-c2cc(C(C)(C)C)nc(C(F)(F)F)c2)n1CC1CCCCC1` [1/23], the IC50 was in the range of 0.5 to 2 µM. Still for that read-out and setting: with `CCC(=O)NCC(C)(C)c1cc(-c2cc(S(N)(=O)=O)c(C)n2CC2CCCCC2)cc(C(C)(C)C)c1` [49/1] the figure was over 2 µM; with `Cc1c(S(=O)(=O)NC2CCCC2)cc(-c2cc(C(C)(C)C)cc(C(C)(C)C)c2)n1CC1CCCCC1` [2/4], 0.5 to 2 µM. Take `Cc1c(S(N)(=O)=O)cc(-c2cc(C(C)(C)C)cc(C(C)(C)C(=O)O)c2)n1CC1CCCCC1` [Example 46, 2-(3-(tert-Butyl)-5-(1-(cyclohexylmethyl)-5-methyl-4-sulfamoyl-1H-pyrrol-2-yl)phenyl)-2-methylpropanoic acid]: the IC50 is over 2 µM. The same measure, in the same setting: with `CC(C)(C)c1cc(-c2cc(S(N)(=O)=O)c(Br)n2CC2CCCCC2)cc(C(C)(C)C)c1` [Example 31, 2-Bromo-1-(cyclohexylmethyl)-5-(3,5-di-tert-butylphenyl)-1H-pyrrole-3-sulfonamide] the figure was under 0.5 µM. On the same count and under the same terms, with `Cc1c(S(N)(=O)=O)cc(-c2ccc(S(=O)(=O)N3CCC(C)CC3)c(C(C)(C)C)c2)n1CC1CCCCC1` [1/26] the figure was 0.5 to 2 µM; with `Cc1c(S(N)(=O)=O)cc(-c2cc(C(C)(C)C)c(C#N)c(C(C)(C)C)c2)n1CC1CCCCC1` [Example 9, 1-(Cyclohexylmethyl)-5-(3,5-di-tert-butyl-4-cyanophenyl)-2-methyl-1H-pyrrole-3-sulfonamide], under 0.5 µM; with `Cc1c(S(N)(=O)=O)cc(-c2cn(S(=O)(=O)c3cccc(Cl)c3)c3ccccc23)n1CC1CCCCC1` [53/1], over 2 µM. Same read-out and setting: the result for `Cc1c(S(N)(=O)=O)cc(-c2cc3c(c(C(C)(C)C)c2)OCCC3=NO)n1CC1CCCCC1` [Example 6/1, 5-(8-(tert-Butyl)-4-(hydroxyimino)chroman-6-yl)-1-(cyclohexylmethyl)-2-methyl-1H-pyrrole-3-sulfonamide] reads over 2 µM. Turning to `Cc1c(S(N)(=O)=O)cc(-c2cc(O)cc(C(C)(C)C)c2)n1CC1CCCCC1` [Example 14, 5-(3-(tert-Butyl)-5-hydroxyphenyl)-1-(cyclohexylmethyl)-2-methyl-1H-pyrrole-3-sulfonamide], the half-maximal inhibitory concentration (IC50) was over 2 µM.

As for `Cc1c(S(N)(=O)=O)cc(-c2cc(C(=O)NC(C)(C)C)cc(C(F)(F)F)c2)n1CC1CCCCC1` [13/13], the IC50 lay within 0.5 to 2 µM. Still for that read-out and setting: with `Cc1c(S(N)(=O)=O)cc(-c2cc(OCCCN3CCOCC3)nc(C(C)(C)C)c2)n1CC1CCCCC1` [17/3] the figure was over 2 µM. On the same count and under the same terms, with `Cc1c(S(N)(=O)=O)cc(-c2cc(C(F)(F)F)c3c(c2)C2(CCO3)CC2)n1CC1CCCCC1` [12/41] the figure was 0.5 to 2 µM; with `Cc1c(S(N)(=O)=O)cc(-c2cc(C(C)(C)C)cc(C(C)(C)C)c2)n1CC1CCCC1` [1/38], 0.5 to 2 µM; with `Cc1c(S(N)(=O)=O)cc(-c2cc(C(C)(C)C)cc(C(C)(C)C)c2)n1CCC1CCCC1` [1/22], under 0.5 µM. Same read-out and setting: with `Cc1c(S(=O)(=O)NCC(=O)O)cc(-c2cc(C(C)(C)C)cc(C(C)(C)C)c2)n1CC1CCCCC1` [Example 43, 2(1-(Cyclohexylmethyl)-5(3,5-di-tert-butylphenyl)-2-methyl-1H-pyrrole-3-sulfonamido)acetic acid] the figure was over 2 µM; with `Cc1c(S(N)(=O)=O)cc(-c2cc3c(c(C(C)(C)C)c2)OCC(=O)N3C)n1CC1CCCCC1` [12/9], over 2 µM.

For the molecule `CC(C)(C)c1cc(-c2cc(S(N)(=O)=O)cn2CC2CCCCC2)cc(C(C)(C)C)c1` [Example 28, 1-(Cyclohexylmethyl)-5-(3,5-di-tert-butylphenyl)-1H-pyrrole-3-sulfonamide], the IC50 was under 0.5 µM. Still for that read-out and setting: the result for `Cc1c(S(N)(=O)=O)cc(C2=CC(S(=O)(=O)c3ccc(Cl)cc3)c3ccccc32)n1CC1CCCCC1` (stereo not shown) [53/2] reads 0.5 to 2 µM; that for `Cc1c(S(N)(=O)=O)cc(-c2cc(C(=O)N(C)C(C)(C)C)cc(C(F)(F)F)c2)n1CC1CCCCC1` [13/14], over 2 µM.

Consider `Cc1c(S(N)(=O)=O)cc(-c2cn(S(=O)(=O)N3CCCCC3)c3ccccc23)n1CC1CCCCC1` [1/33], for which the IC50 was in the range of 0.5 to 2 µM. The same measure, in the same setting: with `Cc1c(S(=O)(=O)NCCC(N)=O)c(Cl)c(-c2cc(C(C)(C)C)cc(C(C)(C)C)c2)n1CC1CCCCC1` [Example 41, 3-(4-chloro-1-(cyclohexylmethyl)-5-(3,5-di-tert-butylphenyl)-2-methyl-1H-pyrrole-3-sulfonamido)propanamide] the figure was under 0.5 µM; with `Cc1c(S(=O)(=O)NCCO)cc(-c2cc(C(C)(C)C)cc(C(C)(C)C)c2)n1CC1CCCCC1` [2/2], under 0.5 µM. Same read-out and setting: the result for `Cc1c(S(=O)(=O)NCC2COCCN2C)cc(-c2cc(C(C)(C)C)cc(C(C)(C)C)c2)n1CC1CCCCC1` (stereo not shown) [5/11] reads 0.5 to 2 µM. Take `Cc1c(S(N)(=O)=O)cc(-c2ccc(S(=O)(=O)N3CCCCC3)c(C(C)(C)C)c2)n1CC1CCCCC1` [1/25]: the IC50 was under 0.5 µM. Same read-out and setting: with `Cc1c(S(N)(=O)=O)cc(-c2ccc(S(=O)(=O)NC(C)(C)C)c(C(F)F)c2)n1CC1CCCCC1` [12/29] the figure was under 0.5 µM; with `Cc1c(S(=O)(=O)NCC(C)(C)C(=O)O)cc(-c2cc(C(C)(C)C)cc(C3(C)CC3)c2)n1CC1CCCCC1` [11/1], over 2 µM; with `Cc1c(S(N)(=O)=O)cc(-c2cccc(N3CCCC3)c2)n1CC1CCCCC1` [1/14], over 2 µM. Turning to `Cc1c(S(N)(=O)=O)cc(-c2cc(C(C)(C)C)cc(C(C)(C)C#N)c2)n1CC1CCCCC1` [Example 45, 5-(3-(tert-Butyl)-5-(2-cyanopropan-2-yl)phenyl)-1-(cyclohexylmethyl)-2-methyl-1H-pyrrole-3-sulfonamide], the IC50 fell in the range of 0.5 to 2 µM. The same measure, in the same setting: with `Cc1c(S(N)(=O)=O)cc(-c2cc(C(C)(C)C)cc(C(C)(C)C)c2)n1CC1CCCCCC1` [1/37] the figure was under 0.5 µM; with `Cc1c(S(N)(=O)=O)cc(-c2cn(S(=O)(=O)N(C)C(C)(C)C)c3ccccc23)n1CC1CCCCC1` [1/31], under 0.5 µM.

In the case of `Cc1c(S(N)(=O)=O)cc(-c2cc(C(=O)NC(C)(C)C)nc(C(C)(C)C)c2)n1CC1CCCCC1` [Example 20, N,6-Di-tert-butyl-4-(1-(cyclohexylmethyl)-5-methyl-4-sulfamoyl-1H-pyrrol-2-yl)picolinamide], the IC50 was 0.5 to 2 µM. As for `Cc1c(S(N)(=O)=O)cc(-c2ccc(N3CCOCC3=O)c(C(C)(C)C)c2)n1CC1CCCCC1` [12/35], the IC50 was over 2 µM. Turning to `Cc1c(S(=O)(=O)NCCCCCO)cc(-c2cc(C(C)(C)C)cc(C(C)(C)C)c2)n1CC1CCCCC1` [Example 5], the IC50 is under 0.5 µM. With `Cc1c(S(N)(=O)=O)cc(-c2c(C)n(S(=O)(=O)N3CCCCC3)c3ccccc23)n1CC1CCCCC1` [1/36], the IC50 is over 2 µM. On to `Cc1c(S(N)(=O)=O)cc(-c2cc(OC(C)C)cc(C(C)(C)C)c2)n1CC1CCCCC1` [16/2], for which the IC50 fell in the range of 0.5 to 2 µM.
